ChEMBL document CHEMBL1201862, “PubChem BioAssay data set” (2004)
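In this assay, cells in 96-well plates receive the compound at five concentrations for 48 hours. Endpoints are linearly interpolated between the surrounding concentrations. Abbreviation: GI50, concentration required for 50% inhibition of growth.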 Activity calls are given as the source filed them. Cut-off read from the data, not from the text of the source: active = GI50 up to about 1.1 µM and inactive = higher.

Assays:
Experiment in all cases: NCI tumour cell line growth inhibition, 48 h
A498 = test system: A498
CAKI-1 = test system: CAKI-1
CCRF-CEM = test system: CCRF-CEM
HOP-62 = test system: HOP-62
Hs-578T = test system: Hs-578T
K562 = test system: K562
MDA-MB-231 = test system: MDA-MB-231
Malme-3M = test system: Malme-3M
NCI-H460 = test system: NCI-H460
NCI/ADR-RES = test system: NCI/ADR-RES
SF-295 = test system: SF-295
SF-539 = test system: SF-539
SK-MEL-2 = test system: SK-MEL-2
SK-OV-3 = test system: SK-OV-3
SNB-75 = test system: SNB-75
SR = test system: SR
T47D = test system: T47D
EKVX = test system: EKVX
HL-60 = test system: HL-60
LOX IMVI = test system: LOX IMVI

SMILES	GI50 (A498)	GI50 (CAKI-1)	GI50 (CCRF-CEM)	GI50 (HOP-62)	GI50 (Hs-578T)	GI50 (K562)	GI50 (MDA-MB-231)	GI50 (Malme-3M)	GI50 (NCI-H460)	GI50 (NCI/ADR-RES)	GI50 (SF-295)	GI50 (SF-539)	GI50 (SK-MEL-2)	GI50 (SK-OV-3)	GI50 (SNB-75)	GI50 (SR)	GI50 (T47D)	GI50 (EKVX)	GI50 (HL-60)	GI50 (LOX IMVI)
CC(=O)N1N=C(c2ccc3ccccc3c2O)CC1c1ccc(Cl)cc1Cl (stereo not drawn)	27.9 µM (inactive)	22.6 µM (inactive)	3.91 µM (inactive)	31.9 µM (inactive)	39.1 µM (inactive)	7.69 µM (inactive)	26.7 µM (inactive)	> 100 µM (inactive)	12.3 µM (inactive)	57.7 µM (inactive)	31.6 µM (inactive)	18.1 µM (inactive)	> 100 µM (inactive)	> 100 µM (inactive)	> 100 µM (inactive)	5.21 µM (inactive)	26.9 µM (inactive)	–	–	–
O=C(NCCN1CCCCC1)c1ccc(Br)cc1	42.8 µM (inactive)	> 100 µM (inactive)	–	> 100 µM (inactive)	> 100 µM (inactive)	> 100 µM (inactive)	> 100 µM (inactive)	> 100 µM (inactive)	> 100 µM (inactive)	> 100 µM (inactive)	> 100 µM (inactive)	–	> 100 µM (inactive)	> 100 µM (inactive)	54.3 µM (inactive)	> 100 µM (inactive)	> 100 µM (inactive)	> 100 µM (inactive)	2.81 µM (inactive)	> 100 µM (inactive)
COc1cc(OC)c(OC)cc1/C=C1\C=Cc2ccccc21	> 10 µM (inactive)	–	16.3 µM (inactive)	15.9 µM (inactive)	22.9 µM (inactive)	5.5 µM (inactive)	12.6 µM (inactive)	23.1 µM (inactive)	10.3 µM (inactive)	17.4 µM (inactive)	18.5 µM (inactive)	15.2 µM (inactive)	> 10 µM (inactive)	19.7 µM (inactive)	2.04 µM (inactive)	5.04 µM (inactive)	7.89 µM (inactive)	19.2 µM (inactive)	5.82 µM (inactive)	13 µM (inactive)
CCCSc1cc(Cl)c(C)cc1S(=O)(=O)n1ccnc1O	> 100 µM (inactive)	> 100 µM (inactive)	> 100 µM (inactive)	> 100 µM (inactive)	> 100 µM (inactive)	> 100 µM (inactive)	> 100 µM (inactive)	> 100 µM (inactive)	> 100 µM (inactive)	> 100 µM (inactive)	> 100 µM (inactive)	> 100 µM (inactive)	> 100 µM (inactive)	> 100 µM (inactive)	20.1 µM (inactive)	> 100 µM (inactive)	> 100 µM (inactive)	> 100 µM (inactive)	–	> 100 µM (inactive)
COc1cc(OCc2ccc3oc(=O)c(-c4ccccc4)nc3c2)cc(OC)c1OC	> 100 µM (inactive)	–	> 100 µM (inactive)	> 100 µM (inactive)	> 100 µM (inactive)	> 100 µM (inactive)	> 100 µM (inactive)	> 100 µM (inactive)	> 100 µM (inactive)	> 100 µM (inactive)	> 100 µM (inactive)	> 100 µM (inactive)	> 100 µM (inactive)	> 100 µM (inactive)	> 100 µM (inactive)	> 100 µM (inactive)	38.9 µM (inactive)	–	–	> 100 µM (inactive)
O=c1c2ccccc2[nH]n1Cc1ccccc1	> 100 µM (inactive)	> 100 µM (inactive)	> 100 µM (inactive)	> 100 µM (inactive)	> 100 µM (inactive)	> 100 µM (inactive)	> 100 µM (inactive)	–	> 100 µM (inactive)	> 100 µM (inactive)	> 100 µM (inactive)	> 100 µM (inactive)	> 100 µM (inactive)	> 100 µM (inactive)	> 100 µM (inactive)	> 100 µM (inactive)	> 100 µM (inactive)	> 100 µM (inactive)	> 100 µM (inactive)	> 100 µM (inactive)
COc1cc(CCC(=O)O)c2cc3ccccc3cc2c1O	33.6 µM (inactive)	19.6 µM (inactive)	3.22 µM (inactive)	17.6 µM (inactive)	39.6 µM (inactive)	20.8 µM (inactive)	18.9 µM (inactive)	18.4 µM (inactive)	23.2 µM (inactive)	25.6 µM (inactive)	20 µM (inactive)	–	18.3 µM (inactive)	67.1 µM (inactive)	–	15.6 µM (inactive)	14.6 µM (inactive)	24.7 µM (inactive)	16.5 µM (inactive)	21.5 µM (inactive)
COc1cc2c(cc1OCc1ccccc1)NC(=S)[C@@H]1CCCN1C2=S	> 100 µM (inactive)	> 100 µM (inactive)	> 100 µM (inactive)	5.85 µM (inactive)	4.84 µM (inactive)	45.2 µM (inactive)	85.3 µM (inactive)	71.6 µM (inactive)	> 100 µM (inactive)	> 100 µM (inactive)	37.5 µM (inactive)	17.4 µM (inactive)	> 100 µM (inactive)	> 100 µM (inactive)	15 µM (inactive)	48.5 µM (inactive)	82.4 µM (inactive)	> 100 µM (inactive)	–	55.5 µM (inactive)
CCCCC1=CC1(C#N)[N+](=O)[O-] (stereo not drawn)	76.2 µM (inactive)	> 100 µM (inactive)	18.1 µM (inactive)	> 100 µM (inactive)	> 100 µM (inactive)	22.3 µM (inactive)	> 100 µM (inactive)	53.6 µM (inactive)	> 100 µM (inactive)	> 100 µM (inactive)	> 100 µM (inactive)	> 100 µM (inactive)	–	> 100 µM (inactive)	39.9 µM (inactive)	33.3 µM (inactive)	> 100 µM (inactive)	> 100 µM (inactive)	> 10 µM (inactive)	31.3 µM (inactive)
O=C(c1ccco1)C1CC(c2ccc3ccccc3c2O)=NN1c1ccc([N+](=O)[O-])cc1[N+](=O)[O-] (stereo not drawn)	23.7 µM (inactive)	33.5 µM (inactive)	2.29 µM (inactive)	33.3 µM (inactive)	15.7 µM (inactive)	–	20.7 µM (inactive)	37 µM (inactive)	10.5 µM (inactive)	21.1 µM (inactive)	18.1 µM (inactive)	28 µM (inactive)	24.5 µM (inactive)	28.1 µM (inactive)	12.5 µM (inactive)	1.01 µM (active)	31.9 µM (inactive)	–	–	–
O=c1[nH]c(=O)n(C/C=C/CBr)nc1Br	13.5 µM (inactive)	11.9 µM (inactive)	7.74 µM (inactive)	21.9 µM (inactive)	19 µM (inactive)	15.8 µM (inactive)	3.49 µM (inactive)	14.2 µM (inactive)	17.5 µM (inactive)	17.6 µM (inactive)	17.2 µM (inactive)	14 µM (inactive)	12.6 µM (inactive)	–	12 µM (inactive)	3.08 µM (inactive)	12.6 µM (inactive)	15.1 µM (inactive)	5.87 µM (inactive)	1.81 µM (inactive)
Nc1ccnc2c1ncn2[C@H]1C[C@H](O)[C@@H](CO)O1	> 100 µM (inactive)	> 100 µM (inactive)	> 100 µM (inactive)	> 100 µM (inactive)	> 100 µM (inactive)	–	> 100 µM (inactive)	–	> 100 µM (inactive)	> 100 µM (inactive)	> 100 µM (inactive)	> 100 µM (inactive)	> 100 µM (inactive)	–	> 100 µM (inactive)	> 100 µM (inactive)	> 100 µM (inactive)	> 100 µM (inactive)	> 100 µM (inactive)	> 100 µM (inactive)
O=C(O)c1ccccc1/C=C1\Cc2ccc3c(c2C1=O)CCCC3	30.8 µM (inactive)	–	30.4 µM (inactive)	49.7 µM (inactive)	34.1 µM (inactive)	38 µM (inactive)	21.4 µM (inactive)	41.8 µM (inactive)	32 µM (inactive)	32.1 µM (inactive)	31.6 µM (inactive)	26.4 µM (inactive)	31.3 µM (inactive)	94.8 µM (inactive)	27 µM (inactive)	26.8 µM (inactive)	19.6 µM (inactive)	43.3 µM (inactive)	26.4 µM (inactive)	40 µM (inactive)
Cn1c2ccccc2c2c3c(c4c5ccccc5n(C5OC(CO)C(O)C(O)C5O)c4c21)C(=O)OC3=O (stereo not drawn)	> 100 µM (inactive)	> 100 µM (inactive)	> 100 µM (inactive)	> 100 µM (inactive)	> 100 µM (inactive)	> 100 µM (inactive)	> 100 µM (inactive)	> 100 µM (inactive)	> 100 µM (inactive)	> 100 µM (inactive)	> 100 µM (inactive)	> 100 µM (inactive)	> 100 µM (inactive)	> 100 µM (inactive)	87.3 µM (inactive)	> 100 µM (inactive)	52.2 µM (inactive)	> 100 µM (inactive)	–	> 100 µM (inactive)
CCc1n[nH]c(=O)n1-n1c(C)ccc1C	> 100 µM (inactive)	> 100 µM (inactive)	> 100 µM (inactive)	> 100 µM (inactive)	> 100 µM (inactive)	> 100 µM (inactive)	> 100 µM (inactive)	> 100 µM (inactive)	> 100 µM (inactive)	> 100 µM (inactive)	> 100 µM (inactive)	–	> 100 µM (inactive)	> 100 µM (inactive)	> 100 µM (inactive)	> 100 µM (inactive)	> 100 µM (inactive)	> 100 µM (inactive)	–	> 100 µM (inactive)
